The target in series [1] is T1, Aquaporin-2 (Homo sapiens) (UniProt P41181).
T1 sequence (whole entry): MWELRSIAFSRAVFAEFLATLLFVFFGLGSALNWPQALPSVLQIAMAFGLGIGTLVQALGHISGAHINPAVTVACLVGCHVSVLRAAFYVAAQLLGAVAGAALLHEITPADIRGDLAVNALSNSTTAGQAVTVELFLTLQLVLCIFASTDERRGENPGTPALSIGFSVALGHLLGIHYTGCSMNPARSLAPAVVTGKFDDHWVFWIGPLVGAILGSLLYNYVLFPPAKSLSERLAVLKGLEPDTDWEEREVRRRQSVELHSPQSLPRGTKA
The series is described as follows: Inhibition of AQP2 (unknown origin) expressed in CHO cells assessed as reduction in aquaporin-mediated cell Volume change at 10 uM by light scattering based assay.

Series [2] concerns the target Aquaporin-5 (Homo sapiens) (UniProt P55064). The experiment in a line: Inhibition of AQP5 (unknown origin) expressed in CHO cells assessed as reduction in aquaporin-mediated cell Volume shrinkage at 10 uM by light scattering based assay.
Series [3] deals with T2, Aquaporin-1 (Homo sapiens) (UniProt P29972).
T2 sequence (whole entry): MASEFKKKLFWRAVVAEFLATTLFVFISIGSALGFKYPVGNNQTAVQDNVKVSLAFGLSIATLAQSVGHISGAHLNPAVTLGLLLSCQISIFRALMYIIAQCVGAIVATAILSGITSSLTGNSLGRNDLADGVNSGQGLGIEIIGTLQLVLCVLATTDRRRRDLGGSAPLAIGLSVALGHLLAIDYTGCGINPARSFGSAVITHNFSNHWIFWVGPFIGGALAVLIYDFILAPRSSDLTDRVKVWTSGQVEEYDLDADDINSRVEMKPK
The experiment in a line: Inhibition of AQP1 (unknown origin) expressed in CHO cells assessed as reduction in aquaporin-mediated cell Volume shrinkage at 10 uM by light scattering based assay.

In series [4] the target is Aquaporin-4 (Homo sapiens) (UniProt P55087). The experiment in a line: Inhibition of AQP4 (unknown origin) expressed in CHO cells assessed as reduction in water shock-induced aquaporin-mediated cell bursting at 10 uM incubated for 30 mins by calcein-AM fluorescence end-point assay. In kind it is cell-based.
Chain of Aquaporin-4 (Homo sapiens) (P55087 whole entry): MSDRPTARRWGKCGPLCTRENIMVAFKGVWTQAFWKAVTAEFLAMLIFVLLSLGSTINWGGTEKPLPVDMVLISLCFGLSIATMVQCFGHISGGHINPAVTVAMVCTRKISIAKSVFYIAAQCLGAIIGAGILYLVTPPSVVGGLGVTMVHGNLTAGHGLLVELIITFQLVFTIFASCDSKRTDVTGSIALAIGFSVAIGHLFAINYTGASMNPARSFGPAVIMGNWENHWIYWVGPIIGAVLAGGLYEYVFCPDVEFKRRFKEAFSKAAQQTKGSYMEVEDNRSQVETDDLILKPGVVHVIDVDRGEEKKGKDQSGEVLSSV
The subject of series [5] is Mus musculus. The experiment in a line: Inhibition of water shock-induced cerebral edema in mouse water toxicity model assessed as reduction in extent of cerebral edema at 0.76 mg/kg by MRI analysis relative to control. It counts as functional, organism-based.
The nature of series [6]: Plasma concentration in mouse water toxicity model a at 0.76 mg/kg. In kind it is organism-based. The note with it: in vivo.
In series [7] the test system is Mus musculus. The series is described as follows: Inhibition of water toxicity in mouse water toxicity model assessed as time to 50% survival for animals at 0.76 mg/kg relative to control. In kind it is functional.
Series [8] in a line: Stability of the compound assessed as compound hydrolysis at room temperature after 5 days. It counts as physicochemical. The note with it: read-out: Drug degradation.
Series [9] can be described thus: Solubility in water. It counts as physicochemical.
Series [10] can be described thus: Stability of the compound in pH 7.5 buffer assessed as compound hydrolysis measured over 12 hrs. In kind it is physicochemical. The note with it: read-out: Drug degradation.
A short description of series [11]: Stability of the compound in solid state assessed as compound hydrolysis. In kind it is physicochemical.
Series [12] can be described thus: Stability of the compound in pH 7.5 buffer assessed as compound hydrolysis at room temperature. The note with it: read-out: Drug degradation. In kind it is physicochemical.
Series [13] is described as follows: Drug metabolism in mouse plasma assessed as formation of 2-3,5-bis(trifluoromethyl)phenylcarbamoyl-4-chlorophenyl phosphate bis-ethanolamine salt at 10 mg/kg, ip loading dose and 1 mg/ml at 8 ul/hr maintenance dose measured at 15 mins and 24 hrs post dose by LC-MS/MS analysis. It counts as ADME, organism-based. Particulars: in vivo.
Series [14] in a line: Drug metabolism in mouse plasma assessed as formation of N-3,5-bis(trifluoromethyl)phenyl-5-chloro-2-hydroxybenzamide at 10 mg/kg, ip loading dose and 1 mg/ml at 8 ul/hr maintenance dose measured at 15 mins and 24 hrs post dose by LC-MS/MS analysis. It counts as ADME, organism-based. The note with it: in vivo.
Series [15] relates to Mus musculus. The series is described as follows: Drug absorption mouse plasma assessed as rate of drug absorption at 10 mg/kg, ip loading dose and 1 mg/ml at 8 ul/hr maintenance dose measured at 15 mins and 24 hrs post dose by LC-MS/MS analysis. In kind it is ADME, organism-based. Particulars: in vivo.
Series [16] in a line: Drug metabolism in mouse plasma assessed as formation of N-3,5-bis(trifluoromethyl)phenyl-5-chloro-2-hydroxybenzamide measured within 5 mins. It counts as ADME, cell-free.
Series [17] can be described thus: Drug metabolism in mouse plasma assessed as N-3,5-bis(trifluoromethyl)phenyl-5-chloro-2-hydroxybenzamide level at 10 mg/kg, ip loading dose and 1 mg/ml at 8 ul/hr maintenance dose measured at 15 mins and 24 hrs post dose by LC-MS/MS analysis. Particulars: in vivo. In kind it is ADME, organism-based.
Series [18] can be described thus: Drug elimination mouse plasma assessed as rate of drug elimination at 10 mg/kg, ip loading dose and 1 mg/ml at 8 ul/hr maintenance dose measured at 15 mins and 24 hrs post dose by LC-MS/MS analysis. It counts as ADME, organism-based.
Series [19] can be described thus: Stability of the compound in pH 9.5 buffer assessed as compound hydrolysis at room temperature. In kind it is physicochemical. Particulars: read-out: Drug degradation.
The nature of series [20]: Stability of the compound in pH 9.5 buffer assessed as compound hydrolysis measured over 12 hrs. The note with it: read-out: Drug degradation. It counts as physicochemical.
Series [21] concerns Mus musculus. The series is described as follows: Improvement in neurological outcome in intraluminal monofilament mouse model of middle cerebral artery occlusion assessed as reduction in death incidence at 2 mg/kg, ip loading dose and 1 mg/ml at 8 ul/hr maintenance dose. In kind it is functional, organism-based.
Series [22] relates to Mus musculus. The experiment in a line: Improvement in neurological outcome in intraluminal monofilament mouse model of middle cerebral artery occlusion assessed as reduction in severe paralysis progress at 2 mg/kg, ip loading dose and 1 mg/ml at 8 ul/hr maintenance dose. In kind it is functional, organism-based.
For series [23], the system named is Mus musculus. The series is described as follows: Improvement in neurological outcome in intraluminal monofilament mouse model of middle cerebral artery occlusion at 2 mg/kg, ip loading dose and 1 mg/ml at 8 ul/hr maintenance dose. In kind it is functional, organism-based.
Series [24] can be described thus: Stability of the compound in pH 8.5 buffer assessed as compound hydrolysis measured over 12 hrs. It counts as physicochemical. The note with it: read-out: Drug degradation.
Series [25] in a line: Stability of the compound in pH 8.5 buffer assessed as compound hydrolysis at room temperature. In kind it is physicochemical. The note with it: read-out: Drug degradation.

The values that follow come from ChEMBL document CHEMBL4421726, “Novel prodrug salts” (2016).

Calls of active or inactive are those of the source. The calls are words filed in the database; no cut-off is given here. Where only a bound is given, the exact number is not on record here.

Chain of Aquaporin-5 (Homo sapiens) (P55064 whole entry): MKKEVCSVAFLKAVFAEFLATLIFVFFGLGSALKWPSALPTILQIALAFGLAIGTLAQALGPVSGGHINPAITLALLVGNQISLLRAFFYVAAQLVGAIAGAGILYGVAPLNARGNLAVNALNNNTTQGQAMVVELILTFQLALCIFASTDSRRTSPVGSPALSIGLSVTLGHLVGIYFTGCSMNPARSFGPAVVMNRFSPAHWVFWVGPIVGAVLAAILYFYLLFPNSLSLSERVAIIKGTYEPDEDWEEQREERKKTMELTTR

In general, inhibition refers to the relative decrease from the control value, in per cent. For the compound `O=C(Nc1cc(Cl)cc(Cl)c1)c1cc(Cl)ccc1O`, the inhibition in [1] worked out at 81%. Moreover, the inhibition result in series [2] and in [3] was “inactive” each time.
For the compound `O=C(Nc1cc(C(F)(F)F)cc(C(F)(F)F)c1)c1cc(Cl)ccc1O` [IMD-0354], the inhibition result (in series [4]; in the series with Mus musculus [5]) was “Active” in each case. Moreover, the Cp in [6] lay in the range of 0.03 to 0.06 g. Further, the Time with Mus musculus [7] is given as 52 min.
On to `O=C(Nc1cc(C(F)(F)F)cc(C(F)(F)F)c1)c1cc(Cl)ccc1OP(=O)(O)O` [listing 1 of 2 here], for which the degraded at 120 h in [8] was less than 1%.
For orientation: solubility means the dissolved amount per volume that the medium holds. High values mean a readily soluble substance, low ones a poorly soluble substance. For `NCCO.NCCO.O=C(Nc1cc(C(F)(F)F)cc(C(F)(F)F)c1)c1cc(Cl)ccc1OP(=O)(O)O`, the solubility in series [9] was 10000 µg/mL. The degraded at 12 h in [10] was less than 1%. Further, the Drug degradation in series [11] stood at 1%. Besides, in series [12], the degraded is 1%. Also, the Drug metabolism result in series [13] was “Metabolite_Notdetected”; in series [14], “Metabolite_Detected”; in series [16], “Metabolite_Detected”; in series [17], 400 ng/mL. Further, the Ka in the series on Mus musculus [15] came out at 0.12 min⁻¹. The k el in series [18] was 0.000283 s⁻¹.
In turn, `O=C(Nc1cc(C(F)(F)F)cc(C(F)(F)F)c1)c1cc(Cl)ccc1OP(=O)([O-])[O-].[Na+].[Na+]` registered a solubility in [9] of 1000 to 10000 µg/mL. Also, the degraded in series [19] is 1%; in series [11] (solid state, read-out: Drug degradation) it was 1%. In series [20], the degraded at 12 h is less than 1%.
Take `O=C(Nc1cc(C(F)(F)F)cc(C(F)(F)F)c1)c1cc(Cl)ccc1OP(=O)(O)O` [listing 2 of 2 here]: the outcome in the series on Mus musculus [21], with Mus musculus [22] and with Mus musculus [23] was Active.
Consider `O=C(Nc1cc(C(F)(F)F)cc(C(F)(F)F)c1)c1cc(Cl)ccc1OP(=O)([O-])O.[Na+]`, for which the Drug degradation in series [11] was 1%. In series [24], the degraded at 12 h was less than 1%. Moreover, the degraded in series [25] came out at 1%.
